Measurements as given in patent US20260259231A1, “METHODS AND DEVICES FOR DETECTION OF COAGULATION IMPAIRMENT” (Coagulo Medical Technologies, Inc., priority 2021, published 2026).
Where two headings read alike, the source gives them in different places.

How the values were obtained:
Factors IIa and Xa = experiment: Whole blood clot detection in parallel microfluidic channels pre-coated with FXa; conditions: whole blood with unfractionated heparin, 10 minutes
Description: FIGS. 4A and 4B are fluorescent images illustrating clot detection using whole blood in a parallel microfluidic channel device 410 according to an example embodiment. Microfluidic channels 420 were pre-coated with agonist, Factor Xa, at various concentrations (7.5 ng/ml, 75 ng/ml, 750 ng/ml; units “ng/mL” refer to ng×10^3/mL) or with buffer alone (negative control). The fluorescent images are taken at one time point (10 minutes). Microfluidic channels were washed with buffer prior to use to leave only bound FXa within the microfluidic channel. Fresh whole blood was placed into each input port and the blood was drawn in through capillary action. The blood was left to flow for 10 minutes and then the channel was gently washed with buffer. Depicted is a brightfield image of two samples evaluated. […] Unfractionated heparin inhibits Factors IIa and Xa in an antithrombin III-dependent fashion, which is why the addition of these factors at appropriate concentrations can help recover the clotting capability of the sample.

[1] = system: coagulation cascade (FXa, FIIa, FXI inhibition); experiment: Clotting time of inhibitor-spiked blood samples on addition of buffer, FXa or FIIa (FIG. 33B); conditions: for clotting time, control condition: no exogenous factor added, contact activation pathway activator; for clotting time upon addition of exogenous FIIa: two concentrations of FIIa; for clotting time upon addition of exogenous FXa: two concentrations of FXa
Description: The control condition (where no exogenous factor is added) utilizes an activator of the contact activation pathway to activate FXII to FXIIa. FIG. 33B is a bar graph showing the clotting time responses to the addition of buffer (control), two concentrations of FXa, and two concentrations of FIIa. […] The amount of exogenous FIIa added to the sample was inadequate to overcome all of the FIIa inhibition present in the sample. In these examples in FIG. 33B, when a sample's clotting time normalizes to the negative control clotting time, such a result is also described as an “unaffected” clotting time in the figures depicting the pathways.

FXI = FXI (Homo sapiens, UniProt P03951); experiment: Clotting time of inhibitor-spiked whole blood samples on addition of exogenous FXI (FIG. 33A, 33C); conditions: FIG. 33C; FXI inhibitor at Conc 1<Conc 2<Conc 3
Chain of FXI (P03951 19-625, species assumed): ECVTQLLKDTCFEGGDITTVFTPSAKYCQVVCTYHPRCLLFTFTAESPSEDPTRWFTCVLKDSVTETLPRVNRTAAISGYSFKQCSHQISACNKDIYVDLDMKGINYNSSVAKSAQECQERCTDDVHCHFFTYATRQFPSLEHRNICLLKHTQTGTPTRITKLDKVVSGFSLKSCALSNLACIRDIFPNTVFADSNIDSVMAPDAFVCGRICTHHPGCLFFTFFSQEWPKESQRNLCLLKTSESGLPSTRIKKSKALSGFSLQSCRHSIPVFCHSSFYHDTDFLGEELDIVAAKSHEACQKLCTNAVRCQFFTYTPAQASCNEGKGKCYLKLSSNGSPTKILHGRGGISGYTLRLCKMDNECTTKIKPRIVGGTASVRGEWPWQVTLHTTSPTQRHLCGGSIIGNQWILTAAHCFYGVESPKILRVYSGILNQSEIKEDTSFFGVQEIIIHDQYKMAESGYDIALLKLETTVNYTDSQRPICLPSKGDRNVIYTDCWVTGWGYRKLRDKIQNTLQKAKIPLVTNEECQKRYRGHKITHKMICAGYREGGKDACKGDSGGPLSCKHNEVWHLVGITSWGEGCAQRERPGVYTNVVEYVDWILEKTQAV
Description: FIG. 33A provides representative clotting-curves of whole blood samples spiked with a concentration of FXI inhibitor (inh) (Conc 1<Conc 2<Conc 3); no inhibitor was added to the negative control. The curves show the samples' respective changes in clotting time as a response to the addition of increasing concentrations of exogenous FXI.
FIG. 33C reports the effect of the addition of exogenous FXI on the clotting time of various samples. In this example, the negative control, containing no inhibitor, has an unaffected clotting time with the addition of FXI.

[2] = PT and INR of patients on FXa-I versus controls; assay type: in vivo, human; conditions: patients documented to be on FXa-I; significance p<0.05
Excerpt: FIGS. 18A-18C illustrate prothrombin time (PT) and international normalized ratio (INR) is sensitive but not specific for FXa-I anticoagulation. Both PT and INR were compared between control patients and patients documented to be on FXa-I. Abnormal PT was defined as >14 seconds and abnormal INR was defined as >1.2. […] One-way ANOVA was used to compare normal and abnormal controls with both rivaroxaban and apixaban. Significance was defined as p<0.05.

FXa = molecular target: T1, FXa (Homo sapiens, UniProt P00742); experiment: Clotting curves of citrated plasma from emergency department patients on FXa-I; assay type: in vivo; conditions: patient plasma samples
T1 construct: Citrated plasma samples were collected from patients; from tissue; host or cells: citrated plasma of patients
T1 sequence (P00742 235-488 limits assumed): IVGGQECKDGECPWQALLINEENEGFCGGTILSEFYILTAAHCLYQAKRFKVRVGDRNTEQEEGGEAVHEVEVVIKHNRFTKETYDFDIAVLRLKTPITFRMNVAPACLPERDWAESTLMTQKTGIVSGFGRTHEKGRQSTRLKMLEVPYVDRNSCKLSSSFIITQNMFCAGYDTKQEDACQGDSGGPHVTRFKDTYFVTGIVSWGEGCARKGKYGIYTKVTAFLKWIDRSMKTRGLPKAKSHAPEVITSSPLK
T1 sequence (P00742 41-179 partner limits assumed): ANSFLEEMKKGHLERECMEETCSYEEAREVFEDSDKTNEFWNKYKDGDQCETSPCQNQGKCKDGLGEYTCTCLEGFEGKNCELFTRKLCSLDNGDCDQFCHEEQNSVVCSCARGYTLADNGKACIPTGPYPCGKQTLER
Description: Citrated plasma samples were collected from patients admitted into the Massachusetts General Hospital Emergency Department. All plasma samples had clinician-ordered coagulation tests (PT/INR, aPTT, DTT, or other). Patient samples were evaluated using an embodiment of the assay described herein. Patient medical records were reviewed for the administration of history of anticoagulants.
Clotting times were compared at various agonist concentrations for all the patient groups to construct clotting curves.

Factor Xa (FXa) = Factor Xa (FXa) (Homo sapiens, UniProt P00742); experiment: Microfluidic clotting-curve assay, plasma spiked with FXa inhibitor, FXa agonist gradient; assay type: biochemical
Chain of Factor Xa (FXa) (P00742 235-488 limits assumed): as the sequence (P00742 235-488 limits assumed) above
Chain of Factor Xa (FXa) (P00742 41-179 partner limits assumed): as the sequence (P00742 41-179 partner limits assumed) above
Excerpt: (§1) A general protocol for performing the assay according to an embodiment of the invention is as follows: • a) Add together sample, agonist, +/−calcium, +/−clot detection agent • i. Calcium to a final concentration between 0.005-0.05 M (This concentration is particularly suitable for use with 3.2% buffered sodium citrate. If another anticoagulant is used, the concentration of calcium may not be 0.02 M.) • ii. Clot detection agents can include fluorescent labeled fibrinogen, magnets, beads (may be fluorescent or colored) • b) Load into microfluidic device • i. See, e.g., FIGS. 1A-1D, 2A and 2B for examples of input loading configuration and order • c) Temperature control • i. Room temperature • ii. May increase up to 37° C.
(§2) In an example, the process of clot detection can include the following procedural steps: • a) A plasma sample is pre-mixed to include: 6 μL plasma+0.6 μL agonist (10% volume to sample)+0.6 μL Calcium (stock 200 mM, 10% volume to sample)+0.6 μL Fibrinogen (this can vary in concentration, in general <10% volume of sample).
(§3) The time it takes for each of the combinations to form a clot is then plotted. […] Concentration of the agonist (FXa for FIGS. 7A-7C, and FIIa for FIG. 7D) is plotted on the X-axis for each of the figures. The units on the X-axis “ng/mL” refer to ng×10^3/mL.

[3] = system: contact activation pathway (intrinsic pathway); experiment: Clotting times of control and factor-deficient plasmas with exogenous coagulation factors (FIG. 25); assay type: biochemical
Excerpt: FIG. 25 is a table providing representative clotting times (minutes:seconds) for various plasma samples in the presence of exogenous coagulation factors. […] The clotting time for the control plasma, with no exogenous factor added (negative control), represents the clotting time based on activation of the contact activation pathway (intrinsic pathway); this clotting time can be designated as normal clotting time. […] The clotting time of the FVIII-deficient plasma decreases with the addition of FVIII or FIXa. […] The clotting time of FIX-deficient plasma decreases with the addition of exogenous FIX or FIXa. In all plasma samples, exogenous FXa is used as a positive control to confirm the ability of the plasma sample to clot. FIIa can also be used for this purpose.

Factor IX = Factor IX (Homo sapiens, UniProt P00740); experiment: Clotting curve, Factor IX added to FIX-deficient plasma or plasma with anti-Factor IX antibodies (FIG. 26); assay type: biochemical
Chain of Factor IX (P00740 29-461 limits assumed): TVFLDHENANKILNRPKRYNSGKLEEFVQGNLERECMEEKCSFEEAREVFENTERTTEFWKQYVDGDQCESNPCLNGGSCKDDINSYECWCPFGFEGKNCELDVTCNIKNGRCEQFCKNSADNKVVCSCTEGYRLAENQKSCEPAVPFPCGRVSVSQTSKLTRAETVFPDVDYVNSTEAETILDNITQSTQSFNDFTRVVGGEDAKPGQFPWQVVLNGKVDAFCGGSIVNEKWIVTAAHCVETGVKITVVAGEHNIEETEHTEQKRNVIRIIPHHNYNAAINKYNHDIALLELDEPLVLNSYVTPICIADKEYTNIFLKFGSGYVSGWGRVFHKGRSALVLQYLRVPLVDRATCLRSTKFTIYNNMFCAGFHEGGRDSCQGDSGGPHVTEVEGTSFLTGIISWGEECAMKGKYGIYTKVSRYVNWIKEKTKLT
Excerpt: It should be understood that the use of exogenous factor addition to a plasma sample may not be able to differentiate between deficiency and low quantities of inhibitors, for example, if the concentration of the inhibitor is low enough such that a physiological level of the factor is able to overcome the functional inhibition resulting in a normalized clotting time. Additionally, the inhibitor detected using the clotting time approach is a functional inhibitor such that the inhibitor decreases the factor's ability to propagate a blood clot.

FIIa = FIIa (Homo sapiens, UniProt P00734)
Excerpt: as §1, §2, §3

Compound: unfractionated heparin
- clot formation in negative control channel (buffer alone) (Factors IIa and Xa): minimal clot formation
- clot formation in FXa-coated channels (Factors IIa and Xa; FXa 7.5, 75, 750 ng×10^3/mL): gradient of clot formation dependent on the concentration of FXa in the channel

Compound: COc1ccc(-n2nc(C(N)=O)c3c2C(=O)N(c2ccc(N4CCCCC4=O)cc2)CC3)cc1 [Apixaban]
- clotting time, control condition [1]: prolongation of clotting time
- clotting time upon addition of exogenous FIIa [1]: shortened and normalized clotting time
- clotting time upon addition of exogenous FXa [1]: concentration-dependent clotting-time response
- clotting time with addition of exogenous FXI (FXI): prolongation in clotting time
- PT and INR compared to abnormal controls (one-way ANOVA) [2]: no significance

Compound: O=C(NC[C@H]1CN(c2ccc(N3CCOCC3=O)cc2)C(=O)O1)c1ccc(Cl)s1 [Rivaroxaban]
- clotting times at various agonist concentrations, patient group versus control group (FXa): very different from the control group
- clot formation time versus negative control (Factor Xa (FXa); 250 ng/mL Rivaroxaban, FXa agonist down to 375 ng×10^3/mL): significantly longer than the negative control but lower than 500 ng/mL
- agonist (FXa) concentration down to which clot formation detected in <[…] (Factor Xa (FXa); 500 ng/ml Rivaroxaban): 750 ng×10^3/mL
- clot formation detection time (Factor Xa (FXa); 500 ng/ml Rivaroxaban, FXa agonist down to 750 ng×10^3/mL): < 2.5 min
- PT and INR compared to abnormal controls (one-way ANOVA) [2]: no significance

Compound: FXI: exogenous coagulation Factor XI, inactive form
- clotting time upon addition of exogenous factor ([3]; FIX-deficient plasma): prolonged clotting time
- clotting time upon addition of exogenous factor ([3]; FVIII-deficient plasma): prolonged clotting time
- clotting time upon addition of exogenous factor ([3]; FXI-deficient plasma): decreases
- clotting time upon addition of exogenous factor ([3]; control (normal) plasma): slight decrease in clotting time

Compound: FIX: exogenous coagulation Factor IX, inactive form
- clotting time upon addition of exogenous factor ([3]; FIX-deficient plasma): decreases
- clotting time upon addition of exogenous factor ([3]; FVIII-deficient plasma): prolonged clotting time
- clotting time upon addition of exogenous factor ([3]; FXI-deficient plasma): prolonged clotting time
- clotting time upon addition of exogenous factor ([3]; control (normal) plasma): slight decrease in clotting time
- concentration of added factor needed for normal clotting time (Factor IX; Factor IX-deficient plasma): requires a physiological concentration of replacement factor
- concentration of added factor needed to decrease clotting time (Factor IX; plasma containing anti-Factor IX antibodies): requires supra-physiological concentrations of the factor

Compound: Dabigatran
- clot formation detection time (FIIa; 250 ng/mL Dabigatran, FIIa agonist down to 710 ng×10^3/mL): < 2.5 min
- clot formation detection time (FIIa; 500 ng/ml Dabigatran, FIIa agonist down to 710 ng×10^3/mL): < 2.5 min
- clot formation detection time (FIIa; <25 ng/ml Dabigatran, FIIa agonist down to 71 ng×10^3/mL): < 2.5 min
- clotting time, control condition [1]: prolongation of clotting time
- clotting time upon addition of exogenous FIIa [1]: concentration-dependent change in clotting time
- clotting time upon addition of exogenous FXa [1]: relatively small concentration-dependent change in clotting time
